Measured values from patent US8524722B2, “Substituted tricyclic compounds and methods of use thereof” (Bayer Intellectual Property GmbH, priority 2007, dated 2013).

Each compound was assayed against Epidermal Growth Factor Receptor (EGFR) (Homo sapiens (Human), UniProt P00533) (assay: EGFR HTRF kinase assay). Conditions: not given.
Format: biochemical
Experimental: EGFR inhibitory activity of compounds of the present invention is quantified employing the EGFR HTRF assay as described in the following paragraphs:
Epidermal Growth Factor Receptor (EGFR), affinity-purified from human carcinoma A431 cells (Sigma-Aldrich, # E3641), is used as kinase. As substrate for the kinase reaction, the biotinylated peptide biotin-Ahx-[…] (C-terminus in amide form) is used (available from, e.g., Biosynthan GmbH, Berlin-Buch, Germany).
EGFR is incubated for 30 min at 22° C. in the presence of different concentrations of test compounds in 5 μl assay buffer [50 mM Hepes/NaOH pH 7.0, 1 mM MgCl2, 5 mM MnCl2, 1.0 mM dithiothreitol, 0.5 mM sodium orthovanadate, 10 μM adenosine triphosphate (ATP), 1 μM substrate, 0.005% (v/v) Tween-20, 1% (v/v) dimethylsulfoxide]. The concentration of EGFR is adjusted depending on the activity of the enzyme lot and is chosen appropriate to have the assay in the linear range; typical concentrations are in the range of 20 U/ml. The reaction is stopped by the addition of 5 μl of a solution of HTRF detection reagents [0.1 μM streptavidine-XLent and 1 nM PT66-Eu-Chelate, an Europium-chelate labelled anti-phosphotyrosine antibody (Perkin Elmer)] in an aqueous EDTA solution [80 mM EDTA, 0.2% (w/v) bovine serum albumin in 50 mM HEPES/NaOH pH 7.0].
The resulting mixture is incubated for 1 h at 22° C. to allow the binding of the biotinylated phosphorylated peptide to the streptavidine-XLent and the PT66-Eu-Chelate. Subsequently, the amount of phosphorylated substrate is evaluated by measurement of the resonance energy transfer from the PT66-Eu-Chelate to the streptavidine-XLent. Therefore, the fluorescence emissions at 620 nm and 665 nm after excitation at 350 nm are measured in an HTRF reader, e.g. a Rubystar (BMG Labtechnologies, Offenburg, Germany) or a Viewlux (Perkin-Elmer). The ratio of the emissions at 665 nm and at […] is taken as the measure for the amount of phosphorylated substrate.

Chain of Epidermal Growth Factor Receptor (EGFR) (P00533 25-1210): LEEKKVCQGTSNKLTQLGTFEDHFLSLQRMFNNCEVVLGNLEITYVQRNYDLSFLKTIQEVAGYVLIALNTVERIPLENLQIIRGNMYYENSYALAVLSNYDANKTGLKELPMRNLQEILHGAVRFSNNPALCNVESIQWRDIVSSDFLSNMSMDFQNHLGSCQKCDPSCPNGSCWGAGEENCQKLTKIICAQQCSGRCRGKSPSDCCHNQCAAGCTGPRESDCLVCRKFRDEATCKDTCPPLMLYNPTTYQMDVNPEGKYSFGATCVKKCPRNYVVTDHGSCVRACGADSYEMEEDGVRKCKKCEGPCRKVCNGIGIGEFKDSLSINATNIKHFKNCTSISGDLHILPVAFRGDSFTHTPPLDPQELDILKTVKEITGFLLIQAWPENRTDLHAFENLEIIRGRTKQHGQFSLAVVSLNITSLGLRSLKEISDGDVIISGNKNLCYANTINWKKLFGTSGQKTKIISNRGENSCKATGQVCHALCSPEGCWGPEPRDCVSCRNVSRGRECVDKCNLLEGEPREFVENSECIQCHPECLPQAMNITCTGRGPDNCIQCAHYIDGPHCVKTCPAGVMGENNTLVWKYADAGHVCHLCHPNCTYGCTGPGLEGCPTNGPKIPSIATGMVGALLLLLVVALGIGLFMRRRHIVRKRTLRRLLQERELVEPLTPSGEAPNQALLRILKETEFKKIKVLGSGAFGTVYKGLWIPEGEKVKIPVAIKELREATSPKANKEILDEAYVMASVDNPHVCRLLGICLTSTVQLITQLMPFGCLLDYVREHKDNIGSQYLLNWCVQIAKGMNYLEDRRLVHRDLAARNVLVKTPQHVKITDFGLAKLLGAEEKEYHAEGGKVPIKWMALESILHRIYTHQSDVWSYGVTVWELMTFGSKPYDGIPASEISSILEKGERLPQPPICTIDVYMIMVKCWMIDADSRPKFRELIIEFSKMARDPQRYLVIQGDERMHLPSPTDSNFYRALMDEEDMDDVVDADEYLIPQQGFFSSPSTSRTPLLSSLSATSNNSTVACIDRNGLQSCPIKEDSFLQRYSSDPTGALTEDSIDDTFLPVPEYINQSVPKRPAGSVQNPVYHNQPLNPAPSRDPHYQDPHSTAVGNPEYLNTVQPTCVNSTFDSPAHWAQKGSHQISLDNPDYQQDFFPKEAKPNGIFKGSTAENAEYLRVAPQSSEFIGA

| IC50 [nM] | Compound |
| --- | --- |
| 1 | CC(C)N(C)C/C=C/C(=O)N1CCc2c(sc3ncnc(Nc4cc(O)cc(Cl)c4)c23)C1 [Example 123, 3-Chloro-5-[(7-{(2E)-4-[methyl(1-methylethyl)amino]but-2-enoyl}-5,6,7,8-tetrahydropyrido[4′,3′:4,5]thieno[2,3-d]pyrimidin-4-yl)amino]phenol] |

Same assay, conditions: EGFR affinity-purified from A431 cells, 10 μM ATP, 30 min at 22° C.

| IC50 [nM] | Compound |
| --- | --- |
| 1 | O=C(/C=C/CN1CCCOCC1)N1CCc2c(sc3ncnc(Nc4ccc(F)c(Cl)c4)c23)C1 [Example 5, N-(3-Chloro-4-fluorophenyl)-7-[(2E)-4-(1,4-oxazepan-4-yl)but-2-enoyl]-5,6,7,8-tetrahydropyrido[4′,3′:4,5]thieno[2,3-d]pyrimidin-4-amine] |
| 1 | CC(C)(CN1CCOCC1)NC/C=C/C(=O)N1CCc2c(sc3ncnc(Nc4ccc(F)c(Cl)c4)c23)C1 [Example 12, N-(3-Chloro-4-fluorophenyl)-7-{(2E)-4-[(1,1-dimethyl-2-morpholin-4-ylethyl)amino]but-2-enoyl}-5,6,7,8-tetrahydropyrido[4′,3′:4,5]thieno[2,3-d]pyrimidin-4-amine] |
| 2 | O=C(/C=C/[C@@H]1CCCN1)N1CCc2c(sc3ncnc(Nc4ccc(F)c(Cl)c4)c23)C1 [Example 13, N-(3-Chloro-4-fluorophenyl)-7-{(2E)-3-[(2S)-pyrrolidin-2-yl]prop-2-enoyl}-5,6,7,8-tetrahydropyrido[4′,3′:4,5]thieno[2,3-d]pyrimidin-4-amine] |
| 1 | CN1CCC[C@H]1/C=C/C(=O)N1CCc2c(sc3ncnc(Nc4ccc(F)c(Cl)c4)c23)C1 [Example 14, N-(3-Chloro-4-fluorophenyl)-7-{(2E)-3-[(2S)-1-methylpyrrolidin-2-yl]prop-2-enoyl}-5,6,7,8-tetrahydropyrido[4′,3′:4,5]thieno[2,3-d]pyrimidin-4-amine] |
| 4.6 | C[C@@H](Nc1ncnc2sc3c(c12)CCN(C(=O)/C=C/CN(C)C)C3)c1ccccc1 [Example 23, 7-[(2E)-4-(Dimethylamino)but-2-enoyl]-N-[(1R)-1-phenylethyl]-5,6,7,8-tetrahydropyrido[4′,3′:4,5]thieno[2,3-d]pyrimidin-4-amine] |
| 1 | COCCN(C/C=C/C(=O)N1CCc2c(sc3ncnc(Nc4ccc(F)c(Cl)c4)c23)C1)CCOC [Example 31] |
| 1 | CN(C)C(=O)N1CCN(C/C=C/C(=O)N2CCc3c(sc4ncnc(Nc5ccc(F)c(Cl)c5)c34)C2)CC1 [Example 70] |
| 12 | CN(C)C/C=C/C(=O)N1Cc2sc3ncnc(Nc4ccc(F)c(Cl)c4)c3c2C1 [Example 81, N-(3-Chloro-4-fluorophenyl)-6-[(2E)-4-(dimethylamino)but-2-enoyl]-6,7-dihydro-5H-pyrrolo[3′,4′:4,5]thieno[2,3-d]pyrimidin-4-amine] |
| 5 | CN(C)C/C=C/C(=O)N1Cc2sc3ncnc(Nc4ccc(OCc5cccc(F)c5)c(Cl)c4)c3c2C1 [Example 86, N-{3-Chloro-4-[(3-fluorobenzyl)oxy]phenyl}-6-[(2E)-4-(dimethylamino)but-2-enoyl]-6,7-dihydro-5H-pyrrolo[3′,4′:4,5]thieno[2,3-d]pyrimidin-4-amine] |
| 19 | CN(C)C/C=C/C(=O)N1Cc2sc3ncnc(Nc4ccc(OCc5ccccn5)c(Cl)c4)c3c2C1 [Example 87, N-[3-Chloro-4-(pyridin-2-ylmethoxy)phenyl]-6-[(2E)-4-(dimethylamino)but-2-enoyl]-6,7-dihydro-5H-pyrrolo[3′,4′:4,5]thieno[2,3-d]pyrimidin-4-amine] |
| 1 | CC(C)N(C)C/C=C/C(=O)N1CCc2c(oc3ncnc(Nc4ccc(F)c(Cl)c4)c23)C1 [Example 90, N-(3-Chloro-4-fluorophenyl)-7-{(2E)-4-[methyl(1-methylethyl)amino]but-2-enoyl}-5,6,7,8-tetrahydropyrido[4′,3′:4,5]furo[2,3-d]pyrimidin-4-amine] |
| 10 | CN(C)C/C=C/C(=O)N1CCc2c(sc3ncc(C#N)c(Nc4ccc(F)c(Cl)c4)c23)C1 [Example 95, 4-[(3-Chloro-4-fluorophenyl)amino]-7-[(2E)-4-(dimethylamino)but-2-enoyl]-5,6,7,8-tetrahydrothieno[2,3-b:5,4-c′]dipyridine-3-carbonitrile] |
| 1 | CN(C/C=C/C(=O)N1CCc2c(sc3ncnc(Nc4cc(O)c(Cl)c(Cl)c4)c23)C1)C(C)(C)C [Example 134, 5-[(7-{(2E)-4-[tert-Butyl(methyl)amino]but-2-enoyl}-5,6,7,8-tetrahydropyrido[4′,3′:4,5]thieno[2,3-d]pyrimidin-4-yl)amino]-2,3-dichlorophenol] |
| 9.2 | CC(C)N(C)C/C=C/C(=O)N1CCc2sc3ncnc(Nc4ccc(Cl)c(Cl)c4)c3c2C1 [Example 139, N-(3,4-Dichlorophenyl)-6-{(2E)-4-[methyl(1-methylethyl)amino]but-2-enoyl}-5,6,7,8-tetrahydropyrido[3′,4′:4,5]thieno[2,3-d]pyrimidin-4-amine] |
| 1 | O=C(/C=C/CN1CCCOCC1)N1CCCc2c(sc3ncnc(Nc4ccc(Cl)c(Cl)c4)c23)C1 [Example 143, N-(3,4-Dichlorophenyl)-8-[(2E)-4-(1,4-oxazepan-4-yl)but-2-enoyl]-6,7,8,9-tetrahydro-5H-pyrimido[5′,4′:4,5]thieno[2,3-c]azepin-4-amine] |
| 4.3 | N#Cc1cnc2sc3c(c2c1Nc1ccc(Cl)c(Cl)c1)CCN(C(=O)/C=C/CN1CCCOCC1)C3 [Example 148, 4-[(3,4-Dichlorophenyl)amino]-7-[(2E)-4-(1,4-oxazepan-4-yl)but-2-enoyl]-5,6,7,8-tetrahydrothieno[2,3-b:5,4-c′]dipyridine-3-carbonitrile] |
| 6.4 | CC(C)N(C)C/C=C/C(=O)N1CCc2c(sc3ncc(C#N)c(Nc4ccc5c(cnn5Cc5cccc(F)c5)c4)c23)C1 [Example 151, 4-{[1-(3-Fluorobenzyl)-1H-indazol-5-yl]amino}-7-{(2E)-4-[methyl(1-methylethyl)amino]but-2-enoyl}-5,6,7,8-tetrahydrothieno[2,3-b:5,4-c′]dipyridine-3-carbonitrile] |

| Compound | IC50 [nM] |
| --- | --- |
| O=C(/C=C/CN1C2CCC1CC2)N1CCc2c(sc3ncnc(Nc4ccc(F)c(Cl)c4)c23)C1 [Example 10, 7-[(2E)-4-(7-Azabicyclo[2.2.1]hept-7-yl)but-2-enoyl]-N-(3-chloro-4-fluorophenyl)-5,6,7,8-tetrahydropyrido[4′,3′:4,5]thieno[2,3-d]pyrimidin-4-amine] | 1.1 |
